One assay deals with CYP2C9 (Homo sapiens, UniProt P11712). The assay can be described thus: CYP2C9 inhibition (fluorescent substrate MFC). The assay is classed as in vitro ADME. The following applies: read-out: Cyp IC50 2C9. The gist of the method: (§1)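 IC50 derives from metabolite fluorescence against compound concentration, read at excitation 409 nm and emission 460 nm for CYP1A2/2C19 or 530 nm for CYP2C9/2D6. Incubations ran at 37° C for 15 min (1A2), 45 min (2C9) or 30 min (2C19, 2D6), after serial dilution into NADPH cofactor mix and 10 min preincubation.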

The next assay has as its target CYP2C19 (Homo sapiens, UniProt P33261). The assay can be described thus: CYP2C19 inhibition (fluorescent substrate CEC). The class given is in vitro ADME. To be noted: read-out: Cyp IC50 2C19. In outline: as §1
The next assay addresses T1, BCR-FMS BaF3 cells (Homo sapiens, UniProt P07333).
T1 construct: fused on or other part: P11274 (Breakpoint cluster region protein)
T1 sequence (P07333 582-910): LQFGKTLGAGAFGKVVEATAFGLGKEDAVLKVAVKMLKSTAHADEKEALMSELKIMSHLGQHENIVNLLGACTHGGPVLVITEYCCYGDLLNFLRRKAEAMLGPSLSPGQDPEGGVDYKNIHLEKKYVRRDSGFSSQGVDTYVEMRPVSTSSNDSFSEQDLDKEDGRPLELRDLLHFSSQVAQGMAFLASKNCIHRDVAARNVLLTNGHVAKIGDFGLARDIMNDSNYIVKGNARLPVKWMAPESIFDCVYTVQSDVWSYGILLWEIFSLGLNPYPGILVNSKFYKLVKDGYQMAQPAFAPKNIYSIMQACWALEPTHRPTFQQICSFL
The assay can be described thus: BaF3 BCR-FMS cell proliferation assay (ATPlite). The assay is classed as cell-based. To be noted: read-out: Inhibition of Cell Proliferation IC50, BCR/BaF3 Fms. In outline:
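Cells are plated overnight: BaF3 at 10,000/well in G418 medium without WEHI/IL-3, MV-4-11 at 25,000/well in IMDM with 10% FBS. An 8-point 1:3 compound titration (10 μM top) is then added, and plates are incubated 3 days at 37 °C before ATPlite readout and IC50 determination.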

CYP2C9, sequence (P11712 whole entry): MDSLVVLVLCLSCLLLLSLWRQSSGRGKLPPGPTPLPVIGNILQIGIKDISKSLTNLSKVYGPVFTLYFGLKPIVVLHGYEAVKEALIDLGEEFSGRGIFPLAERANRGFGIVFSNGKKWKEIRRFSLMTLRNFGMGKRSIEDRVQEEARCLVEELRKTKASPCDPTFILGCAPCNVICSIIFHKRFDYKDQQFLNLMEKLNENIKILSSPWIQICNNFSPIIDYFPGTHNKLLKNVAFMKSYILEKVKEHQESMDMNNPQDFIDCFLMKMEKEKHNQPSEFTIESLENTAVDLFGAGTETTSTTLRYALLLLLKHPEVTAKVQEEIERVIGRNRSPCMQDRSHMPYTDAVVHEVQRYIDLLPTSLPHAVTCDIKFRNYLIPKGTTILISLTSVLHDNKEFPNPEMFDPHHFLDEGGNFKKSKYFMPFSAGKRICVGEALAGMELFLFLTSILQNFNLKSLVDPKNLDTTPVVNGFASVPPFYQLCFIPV
CYP2C19, sequence (P33261 whole entry): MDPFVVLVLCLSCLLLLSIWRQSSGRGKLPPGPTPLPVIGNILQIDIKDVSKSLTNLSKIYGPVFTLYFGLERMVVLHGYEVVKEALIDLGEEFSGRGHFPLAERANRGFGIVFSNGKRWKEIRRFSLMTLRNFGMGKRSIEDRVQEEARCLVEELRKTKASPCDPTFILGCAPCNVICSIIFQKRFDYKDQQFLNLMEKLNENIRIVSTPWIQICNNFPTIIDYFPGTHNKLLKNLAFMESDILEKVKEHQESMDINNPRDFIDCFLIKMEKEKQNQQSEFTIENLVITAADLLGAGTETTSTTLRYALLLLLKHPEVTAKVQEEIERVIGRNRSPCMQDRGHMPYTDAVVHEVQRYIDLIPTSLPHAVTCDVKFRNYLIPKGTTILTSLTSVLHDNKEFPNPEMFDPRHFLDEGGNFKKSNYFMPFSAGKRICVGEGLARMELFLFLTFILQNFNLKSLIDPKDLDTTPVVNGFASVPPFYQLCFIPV

Take `O=C(c1ccc(Nc2ccc(C3CC3)nc2)nc1F)c1c[nH]c2ncnc(NC3CC3)c12` [Compound P-4093, [4-(cyclopropylamino)-7H-pyrrolo[2,3-d]pyrimidin-5-yl]-[6-[(6-cyclopropyl-3-pyridyl)amino]-2-fluoro-3-pyridyl]methanone]: the IC50 at CYP2C9 is above 10 µM; on CYP2C19, above 10 µM; on BCR-FMS BaF3 cells, below 0.01 µM.
Regarding `CNc1ncnc2[nH]cc(C(=O)c3ccc(Nc4ccc(C5CC5)nc4)nc3F)c12` [Compound P-4094, [6-[(6-cyclopropyl-3-pyridyl)amino]-2-fluoro-3-pyridyl]-[4-(methylamino)-7H-pyrrolo[2,3-d]pyrimidin-5-yl]methanone], the IC50 on CYP2C9 was below 5 µM; on CYP2C19, below 5 µM; at BCR-FMS BaF3 cells it was below 0.1 µM.
In the case of `CCc1ccc(Nc2ccc(C(=O)c3c[nH]c4ncnc(NC5CCC5)c34)c(F)n2)cn1` [Compound P-4095, [4-(cyclobutylamino)-7H-pyrrolo[2,3-d]pyrimidin-5-yl]-[6-[(6-ethyl-3-pyridyl)amino]-2-fluoro-3-pyridyl]methanone], the IC50 is above 10 µM on CYP2C9, above 10 µM on CYP2C19 and below 0.01 µM at BCR-FMS BaF3 cells.
In the case of `CCc1ccc(Nc2ccc(C(=O)c3c[nH]c4ncnc(NC5CCC(F)(F)CC5)c34)c(F)n2)cn1` [Compound P-4096, [4-[(4,4-difluorocyclohexyl)amino]-7H-pyrrolo[2,3-d]pyrimidin-5-yl]-[6-[(6-ethyl-3-pyridyl)amino]-2-fluoro-3-pyridyl]methanone], the IC50 is below 5 µM on CYP2C9, below 5 µM on CYP2C19 and below 0.01 µM at BCR-FMS BaF3 cells.
`CCc1ccc(Nc2ccc(C(=O)c3c[nH]c4ncnc(N[C@@H](C)c5ccc(F)cc5)c34)c(F)n2)cn1` [Compound P-4097, [6-[(6-ethyl-3-pyridyl)amino]-2-fluoro-3-pyridyl]-[4-[[(1S)-1-(4-fluorophenyl)ethyl]amino]-7H-pyrrolo[2,3-d]pyrimidin-5-yl]methanone]: the figures for the IC50 at CYP2C9, at CYP2C19 and at BCR-FMS BaF3 cells were below 5 µM, below 5 µM and below 0.1 µM, respectively.
For the compound `CCc1ccc(Nc2ccc(C(=O)c3c[nH]c4ncnc(NCCCOC)c34)c(F)n2)cn1` [Compound P-4098, [6-[(6-ethyl-3-pyridyl)amino]-2-fluoro-3-pyridyl]-[4-(3-methoxypropylamino)-7H-pyrrolo[2,3-d]pyrimidin-5-yl]methanone], the IC50 on CYP2C9 is below 5 µM; at CYP2C19, below 5 µM; at BCR-FMS BaF3 cells, below 0.1 µM.
Take `CCc1ccc(Nc2ccc(C(=O)c3c[nH]c4ncnc(NC5CCCC5)c34)c(F)n2)cn1` [Compound P-4099, [4-(cyclopentylamino)-7H-pyrrolo[2,3-d]pyrimidin-5-yl]-[6-[(6-ethyl-3-pyridyl)amino]-2-fluoro-3-pyridyl]methanone]: the IC50 at CYP2C9 is below 5 µM; at CYP2C19, below 5 µM; on BCR-FMS BaF3 cells, below 0.01 µM.
Take `CCCCNc1ncnc2[nH]cc(C(=O)c3ccc(Nc4ccc(CC)nc4)nc3F)c12` [Compound P-4100, [4-(butylamino)-7H-pyrrolo[2,3-d]pyrimidin-5-yl]-[6-[(6-ethyl-3-pyridyl)amino]-2-fluoro-3-pyridyl]methanone]: the values for the IC50 on CYP2C9, at CYP2C19 and at BCR-FMS BaF3 cells were below 5 µM, below 5 µM and below 0.1 µM, respectively.
Turning to `CC(C)Nc1ncnc2[nH]cc(C(=O)c3ccc(NC4CCCCC4)nc3F)c12` [Compound P-4101, [6-(cyclohexylamino)-2-fluoro-3-pyridyl]-[4-(isopropylamino)-7H-pyrrolo[2,3-d]pyrimidin-5-yl]methanone], the IC50 at CYP2C9 is 5 to 10 µM; on CYP2C19 it was 5 to 10 µM; on BCR-FMS BaF3 cells, below 0.01 µM.
For the compound `CNc1ncnc2[nH]cc(C(=O)c3ccc(NC4CCCCC4)nc3F)c12` [Compound P-4102, [6-(cyclohexylamino)-2-fluoro-3-pyridyl]-[4-(methylamino)-7H-pyrrolo[2,3-d]pyrimidin-5-yl]methanone], the IC50 on CYP2C9 is below 5 µM; at CYP2C19, below 5 µM; at BCR-FMS BaF3 cells, below 0.01 µM.
On to `COc1cncc(Nc2ccc(C(=O)c3c[nH]c4ncnc(NCC(F)(F)F)c34)c(F)n2)c1` [Compound P-4103, [2-fluoro-6-[(5-methoxy-3-pyridyl)amino]-3-pyridyl]-[4-(2,2,2-trifluoroethylamino)-7H-pyrrolo[2,3-d]pyrimidin-5-yl]methanone], for which the IC50 is above 10 µM on CYP2C9, above 10 µM on CYP2C19 and below 0.1 µM at BCR-FMS BaF3 cells.
As for `COc1cncc(Nc2ccc(C(=O)c3c[nH]c4ncnc(NC5CCCCC5)c34)c(F)n2)c1` [Compound P-4104, [4-(cyclohexylamino)-7H-pyrrolo[2,3-d]pyrimidin-5-yl]-[2-fluoro-6-[(5-methoxy-3-pyridyl)amino]-3-pyridyl]methanone], the IC50 was above 10 µM on CYP2C9, 5 to 10 µM at CYP2C19 and below 0.1 µM on BCR-FMS BaF3 cells.
`CCCNc1ncnc2[nH]cc(C(=O)c3ccc(Nc4cncc(OC)c4)nc3F)c12` [Compound P-4105, [2-fluoro-6-[(5-methoxy-3-pyridyl)amino]-3-pyridyl]-[4-(propylamino)-7H-pyrrolo[2,3-d]pyrimidin-5-yl]methanone]: the IC50 is above 10 µM on CYP2C9, above 10 µM at CYP2C19 and below 0.1 µM at BCR-FMS BaF3 cells.
With `COc1cncc(Nc2ccc(C(=O)c3c[nH]c4ncnc(NC(C)C)c34)c(F)n2)c1` [Compound P-4106, [2-fluoro-6-[(5-methoxy-3-pyridyl)amino]-3-pyridyl]-[4-(isopropylamino)-7H-pyrrolo[2,3-d]pyrimidin-5-yl]methanone], the IC50 at CYP2C9 is below 5 µM; at CYP2C19 it was below 5 µM; on BCR-FMS BaF3 cells, below 0.1 µM.
In the case of `COc1cncc(Nc2ccc(C(=O)c3c[nH]c4ncnc(NC5CC5)c34)c(F)n2)c1` [Compound P-4107, [4-(cyclopropylamino)-7H-pyrrolo[2,3-d]pyrimidin-5-yl]-[2-fluoro-6-[(5-methoxy-3-pyridyl)amino]-3-pyridyl]methanone], the IC50 on CYP2C9 was below 5 µM; at CYP2C19, below 5 µM; at BCR-FMS BaF3 cells, below 0.1 µM.
Consider `CNc1ncnc2[nH]cc(C(=O)c3ccc(Nc4cncc(OC)c4)nc3F)c12` [Compound P-4108, [2-fluoro-6-[(5-methoxy-3-pyridyl)amino]-3-pyridyl]-[4-(methylamino)-7H-pyrrolo[2,3-d]pyrimidin-5-yl]methanone], for which the IC50 was below 5 µM at CYP2C9, below 5 µM at CYP2C19 and below 0.1 µM at BCR-FMS BaF3 cells.
For the compound `CC(C)Nc1ncnc2[nH]cc(C(=O)c3ccc(NC4CCCCC4)nc3Cl)c12` [Compound P-4109, [2-chloro-6-(cyclohexylamino)-3-pyridyl]-[4-(isopropylamino)-7H-pyrrolo[2,3-d]pyrimidin-5-yl]methanone], the results for the IC50 at CYP2C9, on CYP2C19 and at BCR-FMS BaF3 cells were 5 to 10 µM, 5 to 10 µM and below 0.1 µM, respectively.
In the case of `CNc1ncnc2[nH]cc(C(=O)c3ccc(NC4CCCCC4)nc3Cl)c12` [Compound P-4110, [2-chloro-6-(cyclohexylamino)-3-pyridyl]-[4-(methylamino)-7H-pyrrolo[2,3-d]pyrimidin-5-yl]methanone], the values for the IC50 at CYP2C9, at CYP2C19 and on BCR-FMS BaF3 cells were below 5 µM, below 5 µM and below 0.1 µM, respectively.
`Cc1ccc(Nc2ccc(C(=O)c3c[nH]c4ncnc(NC5CCCCC5)c34)c(F)n2)cn1` [Compound P-4111, [4-(cyclohexylamino)-7H-pyrrolo[2,3-d]pyrimidin-5-yl]-[2-fluoro-6-[(6-methyl-3-pyridyl)amino]-3-pyridyl]methanone]: the IC50 on CYP2C9 was 5 to 10 µM; on CYP2C19, 5 to 10 µM; on BCR-FMS BaF3 cells, below 0.1 µM.
On to `Cc1ccc(Nc2ccc(C(=O)c3c[nH]c4ncnc(NCC(F)(F)F)c34)c(F)n2)cn1` [Compound P-4112, [2-fluoro-6-[(6-methyl-3-pyridyl)amino]-3-pyridyl]-[4-(2,2,2-trifluoroethylamino)-7H-pyrrolo[2,3-d]pyrimidin-5-yl]methanone], for which the figures for the IC50 on CYP2C9, at CYP2C19 and at BCR-FMS BaF3 cells were below 5 µM, below 5 µM and below 0.1 µM, respectively.
For the compound `Cc1ccc(Nc2ccc(C(=O)c3c[nH]c4ncnc(NCC5CC5)c34)c(F)n2)cn1` [Compound P-4113, [4-(cyclopropylmethylamino)-7H-pyrrolo[2,3-d]pyrimidin-5-yl]-[2-fluoro-6-[(6-methyl-3-pyridyl)amino]-3-pyridyl]methanone], the IC50 on CYP2C9 is above 10 µM; at CYP2C19 it was above 10 µM; at BCR-FMS BaF3 cells, below 0.01 µM.
As to `CCCNc1ncnc2[nH]cc(C(=O)c3ccc(Nc4ccc(C)nc4)nc3F)c12` [Compound P-4114, [2-fluoro-6-[(6-methyl-3-pyridyl)amino]-3-pyridyl]-[4-(propylamino)-7H-pyrrolo[2,3-d]pyrimidin-5-yl]methanone], the figures for the IC50 on CYP2C9, on CYP2C19 and at BCR-FMS BaF3 cells were above 10 µM, above 10 µM and below 0.01 µM, respectively.

(Values after patent US8901118B2, “Compounds and methods for kinase modulation, and indications therefor” (Plexxikon Inc., priority 2010, dated 2014).)
